The values that follow come from patent US20090011410A1, “METHOD FOR TAILORING ADMINISTRATION OF DRUGS BY QUANTITATION OF MRNA” (priority 2004, published 2009).

Experiment [1] deals with p21 mRNA, U937 cells. The experiment is described as follows: etoposide-induced p21 mRNA expression in cultured U937 cells. The note with it: 10 μM etoposide, 2 hours at 37° C. (FIG. 1). It is filed as cell-based, human.
Description: Blood was obtained from healthy adults and from two leukemic non-Hodgkin's malignant lymphoma patients. […] For human experiments, blood aliquots were stimulated with various anti-cancer drugs at 37° C. for 2 hours, then both p21 and BAX mRNA were measured. The anti-cancer drugs used in this study were clinical drugs, and the concentration of each drug was adjusted to typical blood levels 3-6 hours after intravenous administration.
The mRNA and cDNA were prepared from whole blood. In brief, home-made 96-well filterplates were placed over collection plates, and 150 μl 5 mM Tris, pH 7.4, was applied. Following centrifugation at 120×g for 1 min at 4° C., 50 μl of blood samples were applied to each well and immediately centrifuged at 120×g for 2 min at 4° C., followed by washing of each well with 300 μl PBS once with centrifugation at 2000×g for 5 min at 4° C. […] The Ct was determined by analytical software (SDS, ABI).
Experiment [2] concerns p21 mRNA, U937 cells mixed with blood. The experiment is described as follows: etoposide-induced p21 mRNA expression from U937 cells mixed in healthy adult blood. It is filed as cell-based, human. As to conditions: 10 μM etoposide-treated U937, 1,250 U937 cells added to 1 μL blood, vs DMSO-treated U937 (FIG. 2). The procedure:
The mRNA and cDNA were prepared from whole blood. In brief, home-made 96-well filterplates were placed over collection plates, and 150 μl 5 mM Tris, pH 7.4, was applied. Following centrifugation at 120×g for 1 min at 4° C., 50 μl of blood samples were applied to each well and immediately centrifuged at 120×g for 2 min at 4° C., followed by washing of each well with 300 μl PBS once with centrifugation at 2000×g for 5 min at 4° C. Then, 60 μl stock lysis buffer, containing for example 0.5% N-Lauroylsarcosine, 4×SSC, 10 mM Tris HCl, pH 7.4, 1 mM EDTA, 0.1% IGEPAL CA-630, and 1.791 M guanidine thiocyanate, supplemented with 1% 2-mercaptoethanol (Bio Rad, Hercules, Calif., USA), 0.5 mg/ml proteinase K (Pierce, Rockford, Ill., USA), 0.1 mg/ml salmon sperm DNA (5 Prime Eppendorf/Brinkmann, Westbury, N.Y., USA), 0.1 mg/ml E. coli tRNA (Sigma), a cocktail of 10 mM each of the specific reverse primers shown in Table 1, and standard RNA34 oligonucleotides, were applied to the filterplates, followed by incubation at 37° C. for 10 min. The filterplates were then placed over oligo(dT)-immobilized microplates (GenePlate, RNAture), and centrifuged at 2000×g for 5 min at 4° C. […] The Ct was determined by analytical software (SDS, ABI). […]

For `COc1cc([C@@H]2c3cc4c(cc3[C@@H](O[C@@H]3O[C@@H]5CO[C@@H](C)O[C@H]5[C@H](O)[C@H]3O)[C@H]3COC(=O)[C@H]23)OCO4)cc(OC)c1O` [VP-16, etoposide], the p21 expression entry in experiment [1] is on record as “slight but significant p21 expression”. The “p21 mRNA expression” value in experiment [2] is recorded as “significant”.
